# Like-named read-outs stand apart in the source and are kept apart here.
# What was measured:
# Human recombinant FGF-1 [1] = molecular target: T1, Human recombinant FGF-1 (Homo sapiens, UniProt P05230); assay: STD-NMR initial growth rates (STD0) of trisaccharides in presence of FGF-1; type: binding; conditions: 600 MHz, 289 K, protein 19 µM, ligand 1.6 mM; for STD0 H1-A: anomeric proton of ring A; for STD0 H1-B: anomeric proton of ring B
# T1 construct: Human recombinant FGF-1 consisting of 141 residues; purchased Peprotech; host or cells: E. coli
# Human recombinant FGF-1 [2] = molecular target: T1, Human recombinant FGF-1; assay: as above; type: binding; conditions: for STD0 H1-C: anomeric proton of ring C, 600 MHz, 289 K, protein 19 µM, ligand 1.6 mM; for Relative STD0 H1-A / Relative STD0 H1-B / Relative STD0 H1-C: relative to largest anomeric STD0 of the compound (=100)
# From the text: STD-NMR [30] studies were acquired for all the trisaccharides in the library in presence of FGF-1 using the same experimental conditions (see material and methods). Transference of saturation for all trisaccharides probed the interaction with the protein. Nevertheless, in contrast to the case of Langerin interaction, the results differed between the different compounds, indicating the existence of some differences in binding. Unfortunately, the spectral crowding only allowed us to accurately integrate the three anomeric signals along the saturation times, see Figure 3. Using a methodology previously described for disconnect the effect from proton relaxation on the STD values at a given time, the values of the initial rate of growth of STD (STD0) for the considered signals were obtained for the signals under consideration (Figure 4, Table 1). The distribution of magnetization along the trisaccharide chain is rather homogeneous, and is compatible with an extended interaction along the positive cleft of FGF-1, where the main binding site is located.
# STD-NMR Experiments. All the samples were prepared in 250 μL 5 mM phostate buffer at pH 6.0 and 100 mM NaCl in 99.9% D2O. The concentration of the protein was 19 µM, and the ligand was 1.6 mM. The ratio between the protein and ligand was 1:84. The experiments were performed at 289 K. STD-NMR experiments were carried out with spin-lock to suppress protein signals. Moreover, we tried to suppress the solvent using excitation sculpting with gradients, and we used a shaped pulse train for saturation, alternating between on and off resonance. The on-resonance and off-resonance frequencies were set to 0.7 and 40 ppm, respectively. A spoil sequence was used to destroy unwanted magnetization. The saturation times were 0.5, 1, 2, 3 and 4 s, with an additional delay set to 3.6, 3.1, 2.1, 1.1 and 0.1, respectively, in order to keep the relaxation delay constant at […] for all experiments. STD NMR experiments were performed with 2048 scans with a total experimental time for every point of 5 h.
# The STD initial rates (STD0) were calculated from the curve of STD vs. saturation time. To do so, we utilized the equation: STD0(t) = a [1 − exp (−bt)], where a represents the asymptotic maximum of the STD build-up curve (STDmax), b is a rate constant that depends on the relaxation properties of a given proton that measures the rate of the STD build-up (Ksat), and t is the saturation time (tsat). The STD0 values were obtained as the product of the ab coefficients.
# Human recombinant FGF-1 [3] = molecular target: T1, Human recombinant FGF-1; assay: IC50 by selective T1 (T1sel) NMR at different ligand concentrations; type: binding; conditions: T1sel method; 20 μM protein, ligand 80-640 μM
# Procedure: (§1) IC50 values using STD-NMR were calculated for compound 1 at different concentrations based on the initial rates of the affinity factor method (Figure 5). […] In this case, due to the electrostatic nature of the complex, the gap between the protein and the ligand protons is very large, yielding low magnetization transfer values. On other hand, the small binding constant implies a large consumption of trisaccharide due to the high concentration needed to complete a meaningful titration curve. This, together with the large amount of time needed to record the full series of experiments, forced us to consider another method for the estimation of the IC50. Thus, we explored the IC50 calculation using selective T1 at different concentrations (Figure 6). Nevertheless, they are in agreement with the values obtained by Yu-Peng et al., when performing the same measure with disaccharides and FGF-2 by ITC [18].
# Selective T1 NMR experiments. The samples were prepared using the same buffer at 20 μM protein concentration, while ligand concentration was 80, 160, 320, 480 and 640 μM. The ratios between protein and ligand were then 1:4, 1:8, 1:16, 1:24 and 1:32, respectively. We carry out studies on ^1H longitudinal relaxation rate (1/T1(sel). The relaxation times were measured by inversion recovery pulse sequence.
# To determine the IC50, we adjusted the experimental values of the intensity signals vs. recovery delays to obtain an exponential function. We obtained the selective T1 value by f(t) = I0 × [1 − a × exp (−t/T1)]. In a ligand-receptor system where the ligand is present in large excess over the receptor binding sites, the ligand relaxation rate is describe by 1/T1obs = 1/T1free + fbound/(T1bound + tbound), where fbound is the fraction bound ([PL]/[L]) and τbound is the lifetime of the bound state. The relationship between total ligand concentration and T1 is then [P]0T1obs = ([L]0 + IC50)(T1bound + τbound), and a plot of [P]0 T1obs versus [L]0 gives a straight line with IC50 obtained from the intercept of the x axis.
# Human recombinant FGF-1 [4] = molecular target: T1, Human recombinant FGF-1; assay: IC50 by STD-NMR, initial rates of the STD affinity factor (STD0-AF); type: binding; conditions: 600 MHz, 298 K; authors do not support validity of the result; read-out: IC50 (STD-NMR, STD0-AF method)
# Procedure: as §1
# STD-NMR Experiments. […]
# IC50 was obtained using the initial rates of the STD affinity factor approximation. The STD-AF initial slopes (STD-AF0) were calculated as before from the curve of STD-AF vs. saturation time at several ligand concentrations. From these initial slopes, the binding isotherm was built (STD-AF0 vs. ligand concentration), and the curve fitted to a Langmuir equation, from which the IC50 value was determined.
# [5] = molecular target: WGA (Wheat Germen Agglutinin); conditions: reported value, no reference given; cited from earlier work
# [6] = molecular target: WGA (Wheat Germen Agglutinin); assay: T1sel validation assay: binding of GlcNAc to WGA; conditions: T1sel method; lectin 20 uM; preliminary assay
# Procedure: page 7: Calculation of Binding Constants using T1sel. We have used the T1sel method for the evaluation of the KD binding. In order to assess the validity of the method we performed a preliminary assay using the known system of the binding of GlcNAc to WGA (Wheat […] Agglutinin) using a concentration of lectin of 20 uM. […] T1sel method is described in the experimental section of the main paper. (1 picture or pasted object on this page, not shown here)
# T1 sequence (P05230 with tags, fused parts or gaps limits assumed): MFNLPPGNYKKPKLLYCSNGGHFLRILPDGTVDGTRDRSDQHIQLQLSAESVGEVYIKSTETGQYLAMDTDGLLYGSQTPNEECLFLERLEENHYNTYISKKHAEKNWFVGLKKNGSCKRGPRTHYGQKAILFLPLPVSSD
SMILES,STD0 H1-A (Human recombinant FGF-1 [1]),STD0 H1-B (Human recombinant FGF-1 [1]),STD0 H1-C (Human recombinant FGF-1 [2]),Relative STD0 H1-A (Human recombinant FGF-1 [2]),Relative STD0 H1-B (Human recombinant FGF-1 [2]),Relative STD0 H1-C (Human recombinant FGF-1 [2]),IC50 (Human recombinant FGF-1 [3]) [µM],IC50 (Human recombinant FGF-1 [4]) [µM],Kd [5] [µM],Kd [6] [µM]
CC(C)O[C@H]1O[C@H](COS(=O)(=O)O)[C@@H](O[C@@H]2O[C@@H](C(=O)O)[C@@H](O[C@H]3O[C@H](COS(=O)(=O)O)[C@@H](O)[C@H](O)[C@H]3NS(=O)(=O)O)[C@H](O)[C@H]2OS(=O)(=O)O)[C@H](O)[C@H]1NS(=O)(=O)O [Compound 1],0.28,0.34,0.42,66,80,100,49.2 ± 0.3,1700 ± 10,–,–
CC(=O)N[C@H]1[C@@H](OC(C)C)O[C@H](COS(=O)(=O)O)[C@@H](O[C@@H]2O[C@@H](C(=O)O)[C@@H](O[C@H]3O[C@H](COS(=O)(=O)O)[C@@H](O)[C@H](O)[C@H]3NS(=O)(=O)O)[C@H](O)[C@H]2OS(=O)(=O)O)[C@@H]1O [Compound 2],0.11,0.36,0.24,31,100,68,26.1 ± 0.7,–,–,–
CC(C)O[C@H]1O[C@H](COS(=O)(=O)O)[C@@H](O[C@@H]2O[C@@H](C(=O)O)[C@@H](O[C@H]3O[C@H](CO)[C@@H](O)[C@H](O)[C@H]3NS(=O)(=O)O)[C@H](O)[C@H]2OS(=O)(=O)O)[C@H](O)[C@H]1NS(=O)(=O)O [Compound 3],0.17,0.23,0.20,72,100,88,15.4 ± 0.4,–,–,–
CC(=O)N[C@H]1[C@@H](OC(C)C)O[C@H](COS(=O)(=O)O)[C@@H](O[C@@H]2O[C@@H](C(=O)O)[C@@H](O[C@H]3O[C@H](CO)[C@@H](O)[C@H](O)[C@H]3NS(=O)(=O)O)[C@H](O)[C@H]2OS(=O)(=O)O)[C@@H]1O [Compound 4],0.17,0.25,0.24,67,100,94,84.7 ± 0.4,1700,–,–
CC(C)O[C@H]1O[C@H](CO)[C@@H](O[C@@H]2O[C@@H](C(=O)O)[C@@H](O[C@H]3O[C@H](COS(=O)(=O)O)[C@@H](O)[C@H](O)[C@H]3NS(=O)(=O)O)[C@H](O)[C@H]2OS(=O)(=O)O)[C@H](O)[C@H]1NS(=O)(=O)O [Compound 5],0.07,0.06,0.06,100,82,87,50.6 ± 0.1,–,–,–
CC(=O)N[C@H]1[C@@H](OC(C)C)O[C@H](CO)[C@@H](O[C@@H]2O[C@@H](C(=O)O)[C@@H](O[C@H]3O[C@H](COS(=O)(=O)O)[C@@H](O)[C@H](O)[C@H]3NS(=O)(=O)O)[C@H](O)[C@H]2OS(=O)(=O)O)[C@@H]1O [Compound 6],0.08,0.12,0.12,62,100,94,181 ± 5.5,–,–,–
CC(C)O[C@H]1O[C@H](CO)[C@@H](O[C@@H]2O[C@@H](C(=O)O)[C@@H](O[C@H]3O[C@H](CO)[C@@H](O)[C@H](O)[C@H]3NS(=O)(=O)O)[C@H](O)[C@H]2OS(=O)(=O)O)[C@H](O)[C@H]1NS(=O)(=O)O [Compound 7],0.18,0.08,0.11,100,48,64,46.7 ± 0.9,–,–,–
CC(=O)N[C@H]1[C@@H](OC(C)C)O[C@H](CO)[C@@H](O[C@@H]2O[C@@H](C(=O)O)[C@@H](O[C@H]3O[C@H](CO)[C@@H](O)[C@H](O)[C@H]3NS(=O)(=O)O)[C@H](O)[C@H]2OS(=O)(=O)O)[C@@H]1O [Compound 8],–,0.18,0.19,–,99,100,132 ± 1.8,–,–,–
CC(=O)N[C@H]1C(O)O[C@H](CO)[C@@H](O)[C@@H]1O (stereo partly shown) [GlcNAc],–,–,–,–,–,–,–,–,2500,2100
